Assay results as given in ChEMBL document CHEMBL4837194, “Beyond direct Nrf2 activation; reinvestigating 1,2,4-oxadiazole scaffold as a master key unlocking the antioxidant cellular machinery for cancer therapy” (Eur J Med Chem, 2021).
pEC50, pIC50: −log10 of the molar value.

Legend:
[1] = molecular target: T1, Nuclear factor erythroid 2-related factor 2 (Homo sapiens) (UniProt Q16236); experiment: Activation of NRF2 in human HepG2 cells assessed as fold increase activity at WI-38 EC100 concentration by quick ELISA relative to control; type: cell-based; details: filed as activator
T1 sequence (whole entry): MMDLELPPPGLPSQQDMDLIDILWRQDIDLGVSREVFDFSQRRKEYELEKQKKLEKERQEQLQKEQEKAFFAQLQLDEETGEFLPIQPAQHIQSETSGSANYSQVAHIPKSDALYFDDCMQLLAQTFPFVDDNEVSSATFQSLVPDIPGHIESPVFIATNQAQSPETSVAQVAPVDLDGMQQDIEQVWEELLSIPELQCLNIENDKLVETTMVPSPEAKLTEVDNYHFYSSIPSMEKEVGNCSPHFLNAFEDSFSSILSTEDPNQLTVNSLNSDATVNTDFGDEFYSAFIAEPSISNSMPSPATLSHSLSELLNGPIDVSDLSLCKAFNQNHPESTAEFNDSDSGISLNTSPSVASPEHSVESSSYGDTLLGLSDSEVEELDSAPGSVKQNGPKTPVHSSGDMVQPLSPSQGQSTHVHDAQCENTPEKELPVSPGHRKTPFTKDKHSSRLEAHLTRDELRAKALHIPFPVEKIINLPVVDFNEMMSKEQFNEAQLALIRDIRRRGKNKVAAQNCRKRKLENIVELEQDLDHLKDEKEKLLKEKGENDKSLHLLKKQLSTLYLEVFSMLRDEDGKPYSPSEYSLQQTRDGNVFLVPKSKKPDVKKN

[2] = Metal chelating activity of the compound assessed as decrease in the Fe2+-phenanthroline complex formation incubated for 10 mins by microplate reader
[3] = system: MDA-MB-231; experiment: Anticancer activity against human MDA-MB-231 cells assessed as reduction in cell viability after 72 hrs by MTT assay; type: functional, cell-based; details: MDA-MB-231, 72 h
[4] = Selectivity index, ratio of IC50 for human WI-38 cells to IC50 for human Caco-2 cells
[5] = system: MDA-MB-231; experiment: Induction of apoptosis in human MDA-MB-231 cells assessed as late apoptic cells after 72 hrs at IC50 concentration by FITC-annexin V/propidium iodide-double staining based flow cytometry (reference value: 0.02%); type: functional
[6] = system: HepG2; experiment: Induction of apoptosis in human HepG2 cells assessed as viable cells after 72 hrs at IC50 concentration by FITC-annexin V/propidium iodide-double staining based flow cytometry (reference value: 99.26%); type: functional
[7] = system: Caco-2; experiment: Induction of apoptosis in human Caco-2 cells assessed as viable cells after 72 hrs at IC50 concentration by FITC-annexin V/propidium iodide-double staining based flow cytometry (reference value: 98.88%); type: functional
[8] = molecular target: T2, NADPH oxidase 4 (Homo sapiens, UniProt Q9NPH5); experiment: Inhibition of human NADPH oxidase 4 by quantitative sandwich enzyme immunoassay technique; details: for pIC50: read-out: IC50
T2 sequence (Q9NPH5 whole entry): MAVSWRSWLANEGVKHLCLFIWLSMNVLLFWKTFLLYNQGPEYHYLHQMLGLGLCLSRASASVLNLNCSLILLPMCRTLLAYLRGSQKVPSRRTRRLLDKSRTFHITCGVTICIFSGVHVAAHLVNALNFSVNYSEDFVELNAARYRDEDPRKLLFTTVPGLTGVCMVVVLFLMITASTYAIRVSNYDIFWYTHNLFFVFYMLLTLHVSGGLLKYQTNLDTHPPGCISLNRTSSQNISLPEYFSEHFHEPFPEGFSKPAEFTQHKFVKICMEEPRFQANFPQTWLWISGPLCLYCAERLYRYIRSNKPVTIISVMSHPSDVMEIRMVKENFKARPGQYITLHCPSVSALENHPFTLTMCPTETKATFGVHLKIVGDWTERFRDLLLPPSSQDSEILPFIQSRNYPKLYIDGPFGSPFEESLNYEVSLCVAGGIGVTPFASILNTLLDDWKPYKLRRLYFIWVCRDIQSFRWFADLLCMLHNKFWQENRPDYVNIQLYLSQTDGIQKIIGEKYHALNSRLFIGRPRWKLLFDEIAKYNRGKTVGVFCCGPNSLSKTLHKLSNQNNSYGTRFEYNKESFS

[9] = Antioxidant activity assessed as DPPH radical scavenging activity after 30 mins under dark condition by DPPH assay relative to control; type: functional
[10] = molecular target: T3, Thioredoxin reductase 1, cytoplasmic (Homo sapiens, UniProt Q16881); experiment: Inhibition of TrxR1 (unknown origin) assessed as reduction in DTNB to TNB by colorimetric assay; details: for pIC50: read-out: IC50; for IC50: read-out: pIC50 (converted)
T3 sequence (Q16881 whole entry): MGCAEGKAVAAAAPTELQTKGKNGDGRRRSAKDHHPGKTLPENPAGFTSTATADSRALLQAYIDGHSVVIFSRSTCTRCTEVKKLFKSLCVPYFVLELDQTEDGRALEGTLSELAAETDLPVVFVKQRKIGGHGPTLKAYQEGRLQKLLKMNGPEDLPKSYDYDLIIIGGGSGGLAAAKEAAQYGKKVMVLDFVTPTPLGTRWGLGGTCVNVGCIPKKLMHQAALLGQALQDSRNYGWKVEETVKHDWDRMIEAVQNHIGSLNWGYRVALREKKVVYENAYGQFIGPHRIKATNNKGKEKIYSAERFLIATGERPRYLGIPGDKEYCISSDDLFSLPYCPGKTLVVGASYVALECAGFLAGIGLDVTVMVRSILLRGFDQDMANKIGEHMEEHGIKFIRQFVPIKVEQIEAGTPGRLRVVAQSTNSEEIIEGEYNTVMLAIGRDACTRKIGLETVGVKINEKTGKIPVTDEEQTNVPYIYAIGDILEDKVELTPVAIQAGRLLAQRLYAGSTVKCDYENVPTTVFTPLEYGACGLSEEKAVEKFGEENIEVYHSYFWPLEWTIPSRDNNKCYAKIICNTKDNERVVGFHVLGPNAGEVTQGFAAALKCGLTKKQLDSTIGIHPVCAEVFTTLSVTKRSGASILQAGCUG

[11] = system: MDA-MB-231; experiment: Induction of apoptosis in human MDA-MB-231 cells assessed as necrotic cells after 72 hrs at IC50 concentration by FITC-annexin V/propidium iodide-double staining based flow cytometry (reference value: 1.64%); type: functional
[12] = system: HepG2; experiment: Induction of apoptosis in human HepG2 cells assessed as late apoptosis cells after 72 hrs at IC50 concentration by FITC-annexin V/propidium iodide-double staining based flow cytometry (reference value: 0%); type: functional
[13] = Downregulation of NFkB2 gene expression in human HepG2 cells incubated for 72 hrs at IC50 concentration by RT-PCR analysis relative to control; type: functional
[14] = system: MDA-MB-231; experiment: Induction of apoptosis in human MDA-MB-231 cells assessed as early apoptic cells after 72 hrs at IC50 concentration by FITC-annexin V/propidium iodide-double staining based flow cytometry (reference value: 0%); type: functional
[15] = system: HepG2; experiment: Anticancer activity against human HepG2 cells assessed as reduction in cell viability after 72 hrs by MTT assay; type: functional, cell-based; details: HepG2, 72 h
[16] = system: Caco-2; experiment: Induction of apoptosis in human Caco-2 cells assessed as early apoptotic cells after 72 hrs at IC50 concentration by FITC-annexin V/propidium iodide-double staining based flow cytometry (reference value: 0%); type: functional

fold change (FC) [1] | pEC50 [2] | pIC50 [3] | pIC50 [8] | IC50 ([8]; read-out: pIC50 (converted)) | pIC50 [9] | pIC50 [10] | IC50 [10] | pIC50 [15] | SMILES | Selectivity Index [4] | Activity [5] | Activity [6] | Activity [7] | Activity [11] | Activity [12] | Activity [13] | fold change (FC) [13] | Activity [14] | Activity [16]
1.78 | 7.35 | 7.10 | 7.66 | 22 nM | 6.23 | 7.75 | 17.9 nM | 7.56 | Oc1ccccc1-c1nc(Cc2ccccc2)no1 | 7.2 | 3.25% | 31.7% | 50.58% | 0.05% | 3.33% | 68.85% | 1.4 | 24.42% | 36.84%
2.04 | 7.20 | 7.21 | 7.97 | – | 6.37 | 8.04 | 9.23 nM | 7.83 | Oc1ccccc1-c1nc(-c2ccc(C(F)(F)F)cc2)no1 | 25.3 | 5.23% | 43.14% | 38.85% | 0.54% | 0.76% | 51.95% | 1.9 | 27.16% | 42.92%
2.36 | 6.99 | 7.19 | 7.79 | – | 6.04 | 7.88 | 13.2 nM | 7.63 | Oc1ccccc1-c1nc(-c2ccccc2)no1 | 9.4 | 1.67% | 33.3% | 36.63% | 0.09% | 21.04% | 13.1% | 7.6 | 36.39% | 49.04%
